Among the data in BindingDB's records for doi:10.1111/cbdd.12570 (University of Milano, 2015) are IC50 values, retold here.

A word on the pIC50: it is the negative decadic logarithm of the IC50, by convention in mol/L. A high value points to a small IC50.

pIC50: −log10 of the molar value. Structures can show the parent of a compound that is named as a salt.

Sequence of Putative heat shock protein HSP 90-alpha A4 (Q58FG1 whole entry): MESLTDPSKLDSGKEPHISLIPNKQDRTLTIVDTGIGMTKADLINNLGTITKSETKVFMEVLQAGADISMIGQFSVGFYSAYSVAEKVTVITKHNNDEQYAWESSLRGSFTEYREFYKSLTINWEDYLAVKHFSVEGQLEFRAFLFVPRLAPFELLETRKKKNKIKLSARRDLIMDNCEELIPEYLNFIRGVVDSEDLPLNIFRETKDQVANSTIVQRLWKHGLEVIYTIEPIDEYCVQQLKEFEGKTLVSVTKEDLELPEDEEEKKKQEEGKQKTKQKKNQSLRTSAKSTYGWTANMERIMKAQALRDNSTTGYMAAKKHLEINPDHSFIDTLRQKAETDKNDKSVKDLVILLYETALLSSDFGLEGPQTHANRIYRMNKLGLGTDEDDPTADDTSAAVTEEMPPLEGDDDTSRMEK

This test has as its target Putative heat shock protein HSP 90-alpha A4 (Homo sapiens, UniProt Q58FG1). Description: Fluorescence Polarization (FP) Assay. The method, then:
The fluorescence polarization (FP) assay was performed as described in the reference (Bioorg Med Chem. 2010. 18:6031-6043).
(In general: Polarisation of emitted light reports the rotation of a fluorescent probe.)
With `NCCON=C1CCCc2c(-c3ccc(C(N)=O)cc3)noc21` [4-(7-(2-Aminoethoxyimino)-4,5,6,7-tetrahydrobenzo[d]isoxazol-3-yl)-benzamide hydrochloride (21c)], the pIC50 is less than 4.00. With `O=C1NCCc2c(-c3cc(Cl)c(O)cc3O)noc21` [3-(5-chloro-2,4-dihydroxyphenyl)-5,6-dihydroisoxazolo[5,4-c]pyridin-7(4H)-one (9b)] the figure was 5.80. The figure for `C=CCNC1=C2C[C@@H](C)C[C@H](OC)C[C@@H](C)/C=C/[C@H](OC(N)=O)[C@@H](OC)/C=C\C=C(/C)C(=O)NC(=CC1=O)C2=O` [17-AAG] is 5.96; for `NCCON=C1CCCc2c(-c3cc(Cl)c(O)cc3O)noc21` [3-(5-chloro-2,4-dihydroxyphenyl)-5,6-dihydro-4H-benzo[d]isoxazol-7-one O-(2-aminoethyl)-oxime hydrochloride (16)] it is 5.20. With `ON=C1CCCc2c(-c3cc(Cl)c(O)cc3O)noc21` [3-(5-chloro-2,4-dihydroxyphenyl)-5,6-dihydro-4H-benzo[d]isoxazol-7-one oxime (15)] the figure was 6.10; with `Oc1cc(O)c(-c2noc3c2CCCC3O)cc1Cl` (configuration not stated) [3-(5-chloro-2,4-dihydroxyphenyl)-4,5,6,7-tetrahydro-benzo[d]isoxazol-7-ol (14)], 4.59; with `O=C1CCCc2c(-c3cc(Cl)c(O)cc3O)noc21` [3-(5-chloro-2,4-dihydroxyphenyl)-5,6-dihydrobenzo[d]isoxazol-7(4H)-one (13)], 5.32. `NC(=O)c1ccc(-c2noc3c2CCCC3O)cc1` (configuration not stated) [4-(7-Hydroxy-4,5,6,7-tetrahydro-benzo[d]isoxazol-3-yl)benzamide (22)]: the pIC50 was less than 4.00. With `NC(=O)c1ccc(-c2noc3c2CCCC3=NO)cc1` [4-(7-Hydroxyimino-4,5,6,7-tetrahydro-benzo[d]isoxazol-3-yl)benzamide (21a)] the figure was less than 4.00.

The compound `NC(=O)c1ccc(-c2noc3c2CCCC3=O)cc1` [4-(7-Oxo-4,5,6,7-tetrahydrobenzo[d]isoxazol-3-yl)-benzamide (20)] gave a pIC50 of less than 4.00.

Take `CN1CCc2c(-c3cc(Cl)c(O)cc3O)noc2C1=O` [3-(5-chloro-2,4-dihydroxyphenyl)-5,6-dihydro-6-methylisoxazolo[5,4-c]pyridin-7(4H)-one (9a)]: the pIC50 is 5.00. `NC(=O)c1ccc(-c2noc3c2CCCC3=NOCCN2CCOCC2)cc1` [4-(7-(2-Morpholin-4-yl-ethoxyimino)-4,5,6,7-tetrahydrobenzo[d]isoxazol-3-yl)benzamide (21b)] showed a pIC50 of less than 4.00.
